We go through nine compounds from US20100022491A1, “4-HYDROXY-2-OXO-2,3-DIHYDRO-1,3-BENZOTHIAZOL-7YL COMPOUNDS FOR MODULATION OF B2-ADRENORECEPTOR ACTIVITY” (ASTRAZENECA AB, priority 2006, published 2010).

The target in one test is T1, Adrenergic β2 (Homo sapiens, UniProt P07550).
T1 construct: Adherent H292 cells were removed from tissue culture flasks; endogenous in cells; host or cells: H292 cells
The test can be described thus: Adrenergic β2 mediated cAMP production in H292 cells. As to conditions: for EC50: H292 cells, cAMP by AlphaScreen, 60 minutes at room temperature, rolipram 300 μM, read-out: β2 pEC50 (converted); for β2 Int Act: Intrinsic Activity as a fraction relative to the maximum activity determined for formoterol. In kind it is cell-based. On the procedure: Adrenergic β2 mediated cAMP production
H292 cells were grown in 225 cm2 flasks incubator at 37° C., 5% CO2 in RPMI medium containing, 10% (v/v) FBS (foetal bovine serum) and 2 mM L-glutamine.
Adherent H292 cells were removed from tissue culture flasks by treatment with Accutase™ cell detachment solution for 15 minutes. Flasks were incubated for 15 minutes in a humidified incubator at 37° C., 5% CO2. Detached cells were re-suspended in RPMI media (containing 10% (v/v) FBS and 2 mM L-glutamine) at 0.05×10^6 cells per mL. 5000 cells in 100 μL were added to each well of a tissue-culture-treated 96-well plate and the cells incubated overnight in a humidified incubator at 37° C., 5% CO2. The culture media was removed and cells were washed twice with 100 μL assay buffer and replaced with 50 μL assay buffer (HBSS solution containing 10 mM HEPES pH7.4 and 5 mM glucose). Cells were rested at room temperature for 20 minutes after which time 25 μL of rolipram (1.2 mM made up in assay buffer containing 2.4% (v/v) dimethylsulphoxide) was added. Cells were incubated with rolipram for 10 minutes after which time test compounds were added and the cells were incubated for 60 minutes at room temperature. The final rolipram concentration in the assay was 300 μM and final vehicle concentration was 1.6% (v/v) dimethylsulphoxide. The reaction was stopped by removing supernatants, washing once with 100 μL assay buffer and replacing with 50 μL lysis buffer. The cell monolayer was frozen at −80° C. for 30 minutes (or overnight).
The concentration of cAMP (cyclic adenosine monophosphate) in the cell lysate was determined using AlphaScreen™ methodology. The frozen cell plate was thawed for 20 minutes on a plate shaker then 10 μL of the cell lysate was transferred to a 96-well white plate. 40 μL of mixed AlphaScreen™ detection beads pre-incubated with biotinylated cAMP, was added to each well and the plate incubated at room temperature for 10 hours in the dark. The AlphaScreen™ signal was measured using an EnVision spectrophotometer (Perkin-Elmer Inc.) with the recommended manufacturer's settings. cAMP concentrations were determined by reference to a calibration curve determined in the same experiment using standard cAMP concentrations. Concentration response curves for agonists were constructed and data was fitted to a four parameter logistic equation to determine both the pEC50 and Intrinsic Activity. Intrinsic Activity was expressed as a fraction relative to the maximum activity determined for formoterol in each experiment.
In general terms: Cyclic AMP is a second messenger, typically raised through Gs and lowered through Gi signalling.

For test [1], the target named is T2, recombinant human Dopamine Subtype D2s receptors (Homo sapiens, UniProt P14416).
T2 construct: purchased Perkin Elmer
Briefly: Dopamine D2 selectivity binding assay ([3H]-spiperone). As to conditions: inhibition of [3H]-spiperone (0.16 nM) binding; read-out: D2 bind pIC50 (converted). The protocol:
Membranes containing recombinant human Dopamine Subtype D2s receptors were obtained from Perkin Elmer. These were diluted in Assay Buffer (50 mM HEPES, 1 mM EDTA, 120 mM NaCl, 0.1% gelatin, pH 7.4) to provide a final concentration of membranes that gave a clear window between maximum and minimum specific binding.
(§1) Assays were performed in U-bottomed 96-well polypropylene plates. 30 μL [^3H]-spiperone (0.16 nM final concentration) and 30 μL of test compound (10× final concentration) were added to each test well. For each assay plate 8 replicates were obtained for [^3H]-spiperone binding in the presence of 30 μL vehicle (10% (v/v) DMSO in Assay Buffer; defining maximum binding) or 30 μL Haloperidol (10 μM final concentration; defining non-specific binding (NSB)). Membranes were then added to achieve a final volume of 300 μL. The plates were incubated for 2 hours at room temperature and then filtered onto PEI coated GF/B filter plates, pre-soaked for 1 hour in Assay Buffer, using a 96-well plate Tomtec cell harvester. Five washes with 250 μL wash buffer (50 mM HEPES, 1 mM EDTA, 120 mM NaCl, pH 7.4) were performed at 4° C. to remove unbound radioactivity. The plates were dried then sealed from underneath using Packard plate sealers and MicroScint-O (50 μL) was added to each well. The plates were sealed (TopSeal A) and filter-bound radioactivity was measured with a scintillation counter (TopCount, Packard BioScience) using a 3-minute counting protocol.
Total specific binding (B0) was determined by subtracting the mean NSB from the mean maximum binding. NSB values were also subtracted from values from all other wells. […] Data was fitted to a four parameter logistic equation to determine the compound potency, which was expressed as pIC50 (negative log molar concentration inducing 50% inhibition of [^3H]-spiperone binding).

Test [2] concerns the target T3, recombinant human α1D receptor (Homo sapiens, UniProt P25100).
T3 construct: expressed in transfected cells; host or cells: HEK293
T3 sequence (P25100 1-572): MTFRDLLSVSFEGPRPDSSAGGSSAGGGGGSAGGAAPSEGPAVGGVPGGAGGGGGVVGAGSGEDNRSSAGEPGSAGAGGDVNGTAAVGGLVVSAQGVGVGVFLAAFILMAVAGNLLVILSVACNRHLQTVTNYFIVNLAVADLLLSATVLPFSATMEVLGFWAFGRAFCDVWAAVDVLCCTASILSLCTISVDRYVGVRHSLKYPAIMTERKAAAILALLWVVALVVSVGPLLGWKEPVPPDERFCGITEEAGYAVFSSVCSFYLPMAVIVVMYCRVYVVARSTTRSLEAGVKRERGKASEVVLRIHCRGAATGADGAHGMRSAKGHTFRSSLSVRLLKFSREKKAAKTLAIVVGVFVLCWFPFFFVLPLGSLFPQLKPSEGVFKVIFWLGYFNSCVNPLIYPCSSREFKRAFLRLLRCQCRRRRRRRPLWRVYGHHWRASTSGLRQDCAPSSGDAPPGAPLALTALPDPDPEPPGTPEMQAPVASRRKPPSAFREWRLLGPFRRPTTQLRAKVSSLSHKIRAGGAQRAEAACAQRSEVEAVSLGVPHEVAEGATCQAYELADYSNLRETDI
Briefly: Adrenergic α1D selectivity binding assay ([3H]-prazosin). As to conditions: inhibition of [3H]-prazosin (0.3 nM) binding, HEK293 membranes; read-out: α1 bind pIC50 (converted). The protocol: Membranes were prepared from human embryonic kidney 293 (HEK293) cells expressing recombinant human α1D receptor. These were diluted in Assay Buffer (50 mM HEPES, 1 mM EDTA, 0.1% gelatin, pH 7.4) to provide a final concentration of membranes that gave a clear window between maximum and minimum specific binding.
as §1, with “10” for “30”, “[^3H]-prazosin (0.3” for “[^3H]-spiperone (0.16”, “[^3H]-prazosin” for “[^3H]-spiperone”, “BMY7378” for “Haloperidol”, “100” for “300”, “EDTA,” for “EDTA, 120 mM NaCl,”
Total specific binding (B0) was determined by subtracting the mean NSB from the mean maximum binding. NSB values were also subtracted from values from all other wells. […] Data was fitted to a four parameter logistic equation to determine the compound potency, which was expressed as pIC50 (negative log molar concentration inducing 50% inhibition of [^3H]-prazosin binding).

Where a name gives a salt, the structure may show the parent alone.

T2 sequence (P14416 1-414 isoform P14416-2): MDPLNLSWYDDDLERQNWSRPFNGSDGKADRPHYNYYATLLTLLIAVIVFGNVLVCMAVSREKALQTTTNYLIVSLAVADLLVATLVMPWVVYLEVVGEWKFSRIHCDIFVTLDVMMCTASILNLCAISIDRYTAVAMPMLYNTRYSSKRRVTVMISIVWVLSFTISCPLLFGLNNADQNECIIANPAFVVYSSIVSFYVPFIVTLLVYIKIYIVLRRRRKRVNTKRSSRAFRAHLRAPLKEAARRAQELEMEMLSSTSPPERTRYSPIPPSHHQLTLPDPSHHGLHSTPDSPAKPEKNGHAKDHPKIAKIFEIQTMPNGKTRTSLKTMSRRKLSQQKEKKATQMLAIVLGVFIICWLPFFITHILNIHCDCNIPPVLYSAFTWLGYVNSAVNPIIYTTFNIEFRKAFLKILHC
T1 sequence (P07550 whole entry): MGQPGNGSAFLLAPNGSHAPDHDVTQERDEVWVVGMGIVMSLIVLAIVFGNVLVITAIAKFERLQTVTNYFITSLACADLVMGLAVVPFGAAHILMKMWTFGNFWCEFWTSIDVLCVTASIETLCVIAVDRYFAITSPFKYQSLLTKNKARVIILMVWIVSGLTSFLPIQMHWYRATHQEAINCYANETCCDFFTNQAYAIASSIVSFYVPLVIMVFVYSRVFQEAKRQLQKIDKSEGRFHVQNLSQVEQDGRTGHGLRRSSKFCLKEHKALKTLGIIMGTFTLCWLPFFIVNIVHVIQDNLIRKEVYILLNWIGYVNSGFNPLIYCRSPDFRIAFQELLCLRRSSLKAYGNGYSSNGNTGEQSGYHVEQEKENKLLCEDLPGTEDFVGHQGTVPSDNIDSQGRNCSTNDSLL

As for `CC(C)N(CCNCCc1ccc(O)c2[nH]c(=O)sc12)C(=O)CCNCCc1ccccc1` [Example 1, N-(2-{[2-(4-Hydroxy-2-oxo-2,3-dihydro-1,3-benzothiazol-7-yl)ethyl]amino}ethyl)-N-isopropyl-N^3-(2-phenylethyl)-β-alaninamide bis-trifluoroacetic acid salt], at Adrenergic β2, the EC50 is 20 nM and the “β2 Int Act” value stood at 0.78. In addition, the IC50 in test [1] is 398 nM. For the same compound, the IC50 in test [2] was 251 nM.
On the same counts, the results for `CC(C)N(CCNCCc1ccc(O)c2[nH]c(=O)sc12)C(=O)CCNCCc1ccc(Cl)cc1` [Example 3, N^3-[2-(4-Chlorophenyl)ethyl]-N-(2-{[2-(4-hydroxy-2-oxo-2,3-dihydro-1,3-benzothiazol-7-yl)ethyl]amino}ethyl)-N-isopropyl-β-alaninamide bis-trifluoroacetic acid salt] are 39.8 nM, 0.34, 794 nM and 251 nM.
Consider `Cc1cccc(CCNCCC(=O)N(CCNCCc2ccc(O)c3[nH]c(=O)sc23)CC(C)(C)C)c1` [Example 10, N-(2,2-Dimethylpropyl)-N-(2-{[2-(4-hydroxy-2-oxo-2,3-dihydro-1,3-benzothiazol-7-yl)ethyl]amino}ethyl)-N^3-[2-(3-methylphenyl)ethyl]-β-alaninamide bis-trifluoroacetic acid salt], for which, at Adrenergic β2, the EC50 is 5.01 nM and the “β2 Int Act” value is on record as 0.69. The IC50 in test [1] was 794 nM. The IC50 in test [2] was 251 nM.
For `C[C@H](CNCCC(=O)N(CCNCCc1ccc(O)c2[nH]c(=O)sc12)C1CCCCC1)c1ccccc1` [Example 18, N-Cyclohexyl-N-(2-{[2-(4-hydroxy-2-oxo-2,3-dihydro-1,3-benzothiazol-7-yl)ethyl]amino}ethyl)-N^3-[(2S)-2-phenylpropyl]-β-alaninamide bis-trifluoroacetic acid salt] the same measures were 3.98 nM, 0.89, 794 nM and 200 nM.
On to `CC(C)(Cc1ccccc1)NCCC(=O)N(CCNCCc1ccc(O)c2[nH]c(=O)sc12)C1CCCCC1` [Example 19, N-Cyclohexyl-N^3-(1,1-dimethyl-2-phenylethyl)-N-(2-{[2-(4-hydroxy-2-oxo-2,3-dihydro-1,3-benzothiazol-7-yl)ethyl]amino}ethyl)-β-alaninamide bis-trifluoroacetic acid salt], for which, at Adrenergic β2, the EC50 was 39.8 nM and the “β2 Int Act” value is listed as 0.70. In test [1], the IC50 is 1000 nM. Besides, in test [2], the IC50 is 398 nM.
`C[C@@H](CNCCC(=O)N(CCNCCc1ccc(O)c2[nH]c(=O)sc12)C1CCCCC1)c1ccccc1` [Example 20, N-Cyclohexyl-N-(2-{[2-(4-hydroxy-2-oxo-2,3-dihydro-1,3-benzothiazol-7-yl)ethyl]amino}ethyl)-N^3-[(2R)-2-phenylpropyl]-β-alaninamide bis-trifluoroacetic acid salt]: the EC50 at Adrenergic β2 is 10 nM. Besides, on Adrenergic β2, the “β2 Int Act” value was 0.97. For the same compound, the values for the IC50 in test [1] and in test [2] were 794 nM and 251 nM, respectively.
For `CC(C)(CNCCC(=O)N(CCNCCc1ccc(O)c2[nH]c(=O)sc12)C1CCCCC1)c1ccccc1` [Example 21, N-Cyclohexyl-N-(2-{[2-(4-hydroxy-2-oxo-2,3-dihydro-1,3-benzothiazol-7-yl)ethyl]amino}ethyl)-N^3-(2-methyl-2-phenylpropyl)-β-alaninamide bis-trifluoroacetic acid salt], the EC50 on Adrenergic β2 was 31.6 nM. At Adrenergic β2, the “β2 Int Act” value came to 0.85. The IC50 is 3980 nM in test [1] and 251 nM in test [2].
Consider `O=C(CCNCCc1ccccn1)N(CCNCCc1ccc(O)c2[nH]c(=O)sc12)C1CCCCC1` [Example 33, N-Cyclohexyl-N-(2-{[2-(4-hydroxy-2-oxo-2,3-dihydro-1,3-benzothiazol-7-yl)ethyl]amino}ethyl)-N^3-(2-pyridin-2-ylethyl)-β-alaninamide bis-trifluoroacetic acid salt], for which, at Adrenergic β2, the EC50 is 15.8 nM and the “β2 Int Act” value is 0.78. In addition, the IC50 in test [1] was 631 nM. Also, in test [2], the IC50 is 100 nM.
With `CC(=O)OCC(C)(C)CN(CCNCCc1ccc(O)c2[nH]c(=O)sc12)C(=O)CCNCCc1ccc(Cl)cc1` [Example 39, 3-[{N-[2-(4-Chlorophenyl)ethyl]-β-alanyl}(2-{[2-(4-hydroxy-2-oxo-2,3-dihydro-1,3-benzothiazol-7-yl)ethyl]amino}ethyl)amino]-2,2-dimethylpropyl acetate diacetic acid salt], on Adrenergic β2, the EC50 is 251 nM and the “β2 Int Act” value is listed as 0.58. For the same compound, the IC50 in test [1] is 1260 nM. Moreover, the IC50 in test [2] is 631 nM.
